Measured values from patent US10118922B2 (Janssen Pharmaceutica NV, priority 2013, dated 2018).

Molecular target: T1, short form of the GPR120 receptor (Homo sapiens, UniProt Q5NUL3)
T1 construct: host or cells: PathHunter CHO-K1 GPR120S β-Arrestin Cell Line
T1 sequence (Q5NUL3 1-361): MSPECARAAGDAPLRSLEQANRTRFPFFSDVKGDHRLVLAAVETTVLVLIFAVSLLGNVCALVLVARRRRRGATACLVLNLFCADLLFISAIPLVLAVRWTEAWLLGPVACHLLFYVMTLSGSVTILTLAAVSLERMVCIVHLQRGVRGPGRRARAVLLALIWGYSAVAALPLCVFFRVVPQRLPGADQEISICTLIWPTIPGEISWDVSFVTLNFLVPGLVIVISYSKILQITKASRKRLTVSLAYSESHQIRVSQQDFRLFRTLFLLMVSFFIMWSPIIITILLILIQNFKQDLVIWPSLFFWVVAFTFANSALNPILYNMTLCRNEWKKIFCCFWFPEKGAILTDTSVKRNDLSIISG
Test: Human GPR120 DiscoveRx PathHunter beta-arrestin assay, Procedure β-arrestin B
Format: cell-based
Conditions: PathHunter CHO-K1 GPR120S β-Arrestin cells, 5000 cells/well; read-out: hGPR120 β-arrestin B EC50
Text: The binding of an agonist (medium/long chain fatty acids or small molecule agonists) to the G-protein-coupled receptor GPR120 activates phospholipase C, leading to release of intracellular Ca^+2 through the generation of inositol 1,4,5-trisphosphate (InsP3 or IP3). GPR120 activation can also trigger intracellular signaling via recruitment of Beta-Arrestin. In the present method, agonist-induced activation of the human GPR120 receptor is monitored through the use of PathHunter CHO-K1 GPR120 Beta-Arrestin Cell Line engineered by DiscoveRx, as detailed below. The cell lines are designed to co-express both the ProLink/Enzyme Donor (PK)-tagged GPCR and the Enzyme […] (EA)-tagged Beta-Arrestin fusion proteins. Upon GPR120 receptor stimulation/activation, the EA-tagged Beta-Arrestin portion is translocated to the tagged receptor, where the two enzyme fragments are brought within close proximity. Under these conditions, these fragments can interact and form an active Beta-gal enzyme complex through Enzyme Fragment Complementation (EFC). This active Beta-gal complex can enzymatically hydrolyse the substrate to produce a detectable light signal; therefore, activation as a function of agonist concentration can be expressed as an EC50 value to determine relative compound activities. This in vitro assay therefore serves to assess compound agonist activity of the GPR120.
In Procedure β-arrestin B the cells used were PathHunter CHO-K1 GPR120S β-Arrestin Cell Line, expressing the short form of the GPR120 receptor (Accession #NM 181745), with 5000 cells/well.
The selected CHO-K1 GPR120 β-Arrestin cells were cultured in Ham's F12 media supplemented with 10% fetal bovine serum (FBS), 1% Glutamine, 1×p/s, 800 μg/mL G418 and 300 μg/mL Hygromycin B (for selection). Cell stocks were maintained and grown in a sub-confluent state using standard cell culture procedures. The day before the experiment, the cells were harvested with non-enzymatic cell dissociation buffer and re-suspended in complete growth media at the desired concentration. A Corning 384-plate was then seeded with the proper number of cells in a volume of 25 μL, per well. The seeded plates were incubated overnight at 37° C.
On the day of the experiment, the Assay Buffer containing (a) HBSS with Ca^++ and Mg^++, (b) 20 mM HEPES, and (c) 0.1% BSA stabilizer (pH 7.4) was prepared. The growth medium was gently removed from the cell plates and 20 μL of Assay Buffer added to each well. The plate was then incubated at 37° C. for 60 min. Test compounds were serially diluted in Assay Buffer to desired concentrations (more particularly to one or more of the following μM concentrations: 25, 12.5, 6.25, 3.125, 1.5625, 0.78125, 0.390625, 0.1953125, 0.09765625, 0.048828125, 0.024414063, 0.012207031). Five μL of compound dilution was then added to each well and the plate incubated at 37° C. for 90 min. The detection reagents were prepared according to the manufacture's instruction. Twelve μL of the detection reagents were added to each well and the plate incubated at room temperature for 60 min.
The plates were read on an EnVision instrument, using Protocol name: Luminescence, Plate type: 384 Costar, Measurement height: 3 mm, Measurement time: 1 s, Aperture: 384 Plate aperture. The % activity relative to the positive control was calculated using the following equation:
The % Activity values were plotted versus the concentration of test compound and fitted to a sigmoidal dose-response curve with a Hill slope=1 (fixed value) using nonlinear regression with GraphPad Prism 5.0 to calculate the EC50 values. The Fitting Equation was: Y=Bottom+(Top-Bottom)/(1+10^((Log EC50−X)*HillSlope)), where X is the log of the concentration and Y is the response.

Row | SMILES | EC50 [µM]
1 | OCCCc1cc(F)c(OCc2c(Cl)nsc2-c2ccc(Cl)cc2)c(F)c1 [Cpd 78, 3-(4-{[3-Chloro-5-(4-chlorophenyl)isothiazol-4-yl]methoxy}-3,5-difluorophenyl)propan-1-ol] | 0.031
2 | O=C(O)CCc1cc(F)c(OCc2sc(Cl)cc2-c2ccc(Cl)cc2)c(F)c1 [Cpd 2, 3-(4-{[5-Chloro-3-(4-chlorophenyl)thiophen-2-yl]methoxy}-3,5-difluorophenyl)propanoic acid] | 0.068
3 | Cc1sc(-c2ccccc2)c(COc2ccc(CCC(=O)O)c(C)c2C)c1C(F)(F)F [Cpd 33, 3-(2,3-Dimethyl-4-{[5-methyl-2-phenyl-4-(trifluoromethyl)thiophen-3-yl]methoxy}phenyl)propanoic acid] | 0.322
